Assay results as given in the supplement of paper PMC10307832.

How the values were obtained:
Experiment in all cases: relative viability (nuclei count vs DMSO), 5 days (fraction); higher = more cells survive
Silmitasertib + OSI-027 = compound: O=C(O)c1ccc2c(c1)nc(Nc1cccc(Cl)c1)c1ccncc12 [Silmitasertib] + COc1cccc2cc(-c3nc([C@H]4CC[C@H](C(=O)O)CC4)n4ncnc(N)c34)[nH]c12 [OSI-027] (partner 0.5 µM)
In short: (§1)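 Each reported value is a median over duplicate plates. It expresses relative viability: treated-well nuclei count divided by vehicle-well nuclei count. Lung cancer cell lines in 1536-well plates were dosed by pin tool a day after seeding, alone with one drug or with a fixed anchor-drug dose plus five library-drug doses (not always all listed) in √10 steps, and nuclei were counted after 5 days.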

[1] = compound: O=C(O)c1ccc2c(c1)nc(Nc1cccc(Cl)c1)c1ccncc12 [Silmitasertib] + Nc1nc2[nH]cc(CCc3ccc(C(=O)N[C@@H](CCC(=O)O)C(=O)O)cc3)c2c(=O)[nH]1 [Pemetrexed] (partner 0.2 µM)
In short: as §1

[2] = compound: O=C(O)c1ccc2c(c1)nc(Nc1cccc(Cl)c1)c1ccncc12 [Silmitasertib] + CC(C)C[C@H](NC(=O)[C@H](Cc1ccccc1)NC(=O)c1cnccn1)B(O)O [Bortezomib] (partner 0.002 µM)
In short: as §1

[3] = compound: O=C(O)c1ccc2c(c1)nc(Nc1cccc(Cl)c1)c1ccncc12 [Silmitasertib] + CC(=O)c1c(C)c2cnc(Nc3ccc(N4CCNCC4)cn3)nc2n(C2CCCC2)c1=O [Palbociclib] (partner 0.5 µM)
In short: as §1

[4] = compound: O=C(O)c1ccc2c(c1)nc(Nc1cccc(Cl)c1)c1ccncc12 [Silmitasertib] + Cc1cc(Nc2cc(N3CCN(C)CC3)nc(Sc3ccc(NC(=O)C4CC4)cc3)n2)n[nH]1 [Tozasertib] (partner 0.1 µM)
In short: as §1

Row | Cell Line | relative viability (Silmitasertib + OSI-027; first compound 0.04 µM) | relative viability (Silmitasertib + OSI-027; first compound 1.265 µM) | relative viability (Silmitasertib + OSI-027; first compound 4 µM) | relative viability ([1]; first compound 0.04 µM) | relative viability ([1]; first compound 0.4 µM) | relative viability ([1]; first compound 1.265 µM) | relative viability ([1]; first compound 4 µM) | relative viability ([2]; first compound 0.04 µM) | relative viability ([2]; first compound 1.265 µM) | relative viability ([2]; first compound 4 µM) | relative viability ([3]; first compound 0.04 µM) | relative viability ([3]; first compound 0.4 µM) | relative viability ([3]; first compound 1.265 µM) | relative viability ([3]; first compound 4 µM) | relative viability ([4]; first compound 0.04 µM) | relative viability ([4]; first compound 1.265 µM) | relative viability ([4]; first compound 4 µM) | relative viability (Silmitasertib + OSI-027; first compound 0.4 µM) | relative viability ([2]; first compound 0.4 µM) | relative viability ([4]; first compound 0.4 µM)
1 | NCI-H838 | 0.456 | 0.425 | 0.274 | 0.231 | 0.234 | 0.227 | 0.213 | 1.15 | 0.759 | 0.66 | 0.253 | 0.25 | 0.18 | 0.199 | 0.289 | 0.257 | 0.222 |  |  | 
2 | NCI-H3122 | 0.993 | 0.972 | 0.826 | 0.203 | 0.189 | 0.185 | 0.194 | 1.11 | 1.03 | 1.12 | 0.219 | 0.17 | 0.172 | 0.155 | 0.427 | 0.334 | 0.305 | 0.888 | 0.935 | 0.41
3 | SK-MES-1 | 0.675 | 0.435 | 0.236 | 1.03 | 1.02 | 0.763 | 0.339 |  |  |  | 0.359 | 0.322 | 0.253 | 0.275 | 1.07 | 0.542 | 0.159 | 0.558 |  | 1.02
4 | NCI-H1944 | 0.409 | 0.424 | 0.295 | 0.551 | 0.447 | 0.615 | 0.77 |  |  |  | 0.335 | 0.359 | 0.314 | 0.383 | 0.259 | 0.237 | 0.308 | 0.382 |  | 0.266
5 | LK-2 | 0.266 | 0.247 | 0.184 | 0.254 |  | 0.084 | 0.297 |  |  |  | 0.593 |  | 0.509 | 0.397 | 0.165 | 0.169 | 0.19 |  |  | 
6 | PC-3 [JPC-3] | 0.841 | 0.777 | 0.573 | 1.18 | 0.919 | 1.15 | 0.6 | 0.892 | 0.891 | 0.826 | 0.544 | 0.544 | 0.615 | 0.585 | 0.971 | 0.86 | 0.835 | 0.573 | 0.699 | 0.69
7 | NCI-H1395 | 0.731 | 0.591 | 0.477 | 0.975 | 0.756 | 0.841 | 0.654 |  |  |  | 0.631 | 0.617 | 0.592 | 0.597 | 0.742 | 0.68 | 0.623 | 0.552 |  | 0.559
8 | NCI-H2170 | 0.798 | 0.619 | 0.54 | 0.271 | 0.258 | 0.25 | 0.282 |  |  |  | 0.371 | 0.284 | 0.363 | 0.344 | 0.673 | 0.713 | 0.65 | 0.535 |  | 0.478
9 | NCI-H1793 | 0.329 | 0.27 | 0.217 | 1.08 | 0.851 | 0.719 | 0.425 |  |  |  | 0.309 | 0.319 | 0.32 | 0.303 | 0.392 | 0.2 | 0.331 | 0.192 |  | 0.297
10 | ABC-1 | 0.52 | 0.221 | 0.226 |  |  |  |  | 0.402 | 0.281 | 0.226 | 1.09 | 0.86 | 0.555 | 0.674 | 0.19 | 0.185 | 0.193 | 0.37 | 0.353 | 0.165
11 | NCI-H1703 |  |  |  |  |  |  |  | 0.352 | 0.294 | 0.193 |  |  |  |  |  |  |  |  | 0.278 | 
12 | NCI-H2342 | 0.762 | 0.504 | 0.539 | 0.77 |  | 0.72 | 0.681 |  |  |  | 0.522 |  | 0.494 | 0.495 | 0.479 | 0.374 | 0.445 | 0.606 |  | 0.479
13 | SW 900 | 0.648 | 0.388 | 0.207 | 0.493 | 0.463 | 0.464 | 0.258 |  |  |  | 0.538 | 0.624 | 0.507 | 0.492 | 0.649 | 0.38 | 0.349 | 0.304 |  | 0.413
14 | NCI-H522 | 0.739 | 0.684 | 0.67 | 0.986 | 0.846 | 1 | 1.15 |  |  |  | 1.02 | 0.801 | 0.903 | 1.04 | 0.611 | 0.541 | 0.574 | 0.762 |  | 0.464
15 | NCI-H727 | 0.701 | 0.48 | 0.488 |  |  |  |  | 1 | 0.736 | 0.516 | 0.64 | 0.529 | 0.648 | 0.681 | 0.584 | 0.681 | 0.609 | 0.426 | 0.608 | 0.62
16 | NCI-H1792 | 0.815 | 0.782 | 0.699 | 0.772 | 0.78 | 0.78 | 0.331 | 0.943 | 0.53 | 0.864 | 0.674 | 0.574 | 0.708 | 0.698 |  |  |  | 0.675 | 0.68 | 
17 | IA-LM |  |  |  |  |  |  |  | 0.879 | 1.01 | 0.586 |  |  |  |  |  |  |  |  | 0.632 | 
18 | NCI-H358 | 1.09 | 0.519 | 0.376 | 0.186 | 0.164 | 0.18 | 0.131 |  |  |  | 0.133 | 0.128 | 0.134 | 0.125 | 0.121 | 0.115 | 0.083 | 0.349 |  | 0.0941
19 | NCI-H596 | 0.749 | 0.68 | 0.472 | 0.523 | 0.502 | 0.54 | 0.472 | 1 | 1.02 | 0.751 |  |  |  |  | 0.967 | 0.624 | 0.799 | 0.471 | 0.818 | 0.735
20 | NCI-H1563 | 0.773 | 0.779 | 0.681 | 0.871 | 0.844 |  | 0.693 | 0.932 | 0.844 | 0.821 |  |  |  |  |  |  |  | 0.773 | 0.903 | 
